Laboratory results reported in PubChem BioAssay AID2060624 (Molecular Pharmacology Branch, DTP, NCI, 2025).

System: 217524-143-R1-J4-PDC spheroids with HUVEC/MSC, viability
Test: Anticancer human tumor 217524-143-R1-J4-PDC patient-derived pancreatic carcinoma cell line growth inhibition [CLK]
Conditions: for IC50: curve of first compound; for viability, T/C: stronger effect = lower value
Method in brief: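 Multi-cell-type spheroids combined patient-derived tumor cells with HUVEC endothelial cells and human mesenchymal stem cells. Paired agents were dosed in half-log steps down from about clinical Cmax, or from 10 microM where Cmax was unknown.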

[1] = second compound 0.0316 µM, first compound 0.0316 µM
[2] = second compound 0.0316 µM, first compound 0.1 µM
[3] = second compound 0.1 µM, first compound 0.0316 µM
[4] = second compound 0.1 µM, first compound 0.1 µM
[5] = second compound 0.316 µM, first compound 0.0316 µM
[6] = second compound 0.316 µM, first compound 0.1 µM
[7] = second compound 1 µM, first compound 0.0316 µM
[8] = second compound 1 µM, first compound 0.1 µM
[9] = second compound 3.16 µM, first compound 0.0316 µM
[10] = second compound 3.16 µM, first compound 0.1 µM
[11] = second compound 10 µM, first compound 0.0316 µM
[12] = second compound 10 µM, first compound 0.1 µM
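Also: spheroids exposed to agents for seven days before reading.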
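For viability, T/C in this document: 100% = DMSO vehicle control viability.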

## CC(C)CC(NC(=O)C(Cc1ccccc1)NC(=O)c1cnccn1)B(O)O (stereo unspecified) + CNC(=O)c1ccc(Nc2nc(OC3CCCC3)c3c(-c4ccc5nc(C)oc5c4)c[nH]c3n2)c(OC)c1
Second compound 0.0316 µM
  IC50: 5.06 nM
Second compound 0.1 µM
  IC50: 3.04 nM
Second compound 0.316 µM
  IC50: < 0.949 nM
Second compound 1 µM
  IC50: < 0.949 nM
Second compound 3.16 µM
  IC50: < 0.949 nM
Second compound 10 µM
  IC50: < 0.949 nM
Second compound 0.0316 µM, first compound 0.000949 µM
  viability, T/C: 90.4%
Second compound 0.0316 µM, first compound 0.003 µM
  viability, T/C: 71.8%
Second compound 0.0316 µM, first compound 0.00949 µM
  viability, T/C: 23.7%
Second compound 0.0316 µM, first compound 0.03 µM
  viability, T/C: 6.76%
Second compound 0.0316 µM, first compound 0.0949 µM
  viability, T/C: 3.97%
Second compound 0.0316 µM, first compound 0.3 µM
  viability, T/C: 1.1%
Second compound 0.1 µM, first compound 0.000949 µM
  viability, T/C: 45.6%
Second compound 0.1 µM, first compound 0.003 µM
  viability, T/C: 55.1%
Second compound 0.1 µM, first compound 0.00949 µM
  viability, T/C: 17.5%
Second compound 0.1 µM, first compound 0.03 µM
  viability, T/C: 5.06%
Second compound 0.1 µM, first compound 0.0949 µM
  viability, T/C: 2.97%
Second compound 0.1 µM, first compound 0.3 µM
  viability, T/C: 1.89%
Second compound 0.316 µM, first compound 0.000949 µM
  viability, T/C: 40.3%
Second compound 0.316 µM, first compound 0.003 µM
  viability, T/C: 47.1%
Second compound 0.316 µM, first compound 0.00949 µM
  viability, T/C: 18.7%
Second compound 0.316 µM, first compound 0.03 µM
  viability, T/C: 4.6%
Second compound 0.316 µM, first compound 0.0949 µM
  viability, T/C: 3.43%
Second compound 0.316 µM, first compound 0.3 µM
  viability, T/C: 2.04%
Second compound 1 µM, first compound 0.000949 µM
  viability, T/C: 29.1%
Second compound 1 µM, first compound 0.003 µM
  viability, T/C: 38.5%
Second compound 1 µM, first compound 0.00949 µM
  viability, T/C: 7.88%
Second compound 1 µM, first compound 0.03 µM
  viability, T/C: 2.84%
Second compound 1 µM, first compound 0.0949 µM
  viability, T/C: 2.06%
Second compound 1 µM, first compound 0.3 µM
  viability, T/C: 1.44%
Second compound 3.16 µM, first compound 0.000949 µM
  viability, T/C: 25.7%
Second compound 3.16 µM, first compound 0.003 µM
  viability, T/C: 41.2%
Second compound 3.16 µM, first compound 0.00949 µM
  viability, T/C: 5.46%
Second compound 3.16 µM, first compound 0.03 µM
  viability, T/C: 2.33%
Second compound 3.16 µM, first compound 0.0949 µM
  viability, T/C: 1.76%
Second compound 3.16 µM, first compound 0.3 µM
  viability, T/C: 1.27%
Second compound 10 µM, first compound 0.000949 µM
  viability, T/C: 24.6%
Second compound 10 µM, first compound 0.003 µM
  viability, T/C: 34.8%
Second compound 10 µM, first compound 0.00949 µM
  viability, T/C: 6.06%
Second compound 10 µM, first compound 0.03 µM
  viability, T/C: 2.66%
Second compound 10 µM, first compound 0.0949 µM
  viability, T/C: 1.59%
Second compound 10 µM, first compound 0.3 µM
  viability, T/C: 0.75%

## Cn1ncnc1[C@H]1c2n[nH]c(=O)c3cc(F)cc(c23)N[C@@H]1c1ccc(F)cc1 + CNC(=O)c1ccc(Nc2nc(OC3CCCC3)c3c(-c4ccc5nc(C)oc5c4)c[nH]c3n2)c(OC)c1
Second compound 0.0316 µM
  IC50: > 100 nM
Second compound 0.1 µM
  IC50: < 0.316 nM
Second compound 0.316 µM
  IC50: < 0.316 nM
Second compound 1 µM
  IC50: < 0.316 nM
Second compound 3.16 µM
  IC50: < 0.316 nM
Second compound 10 µM
  IC50: < 0.316 nM
Second compound 0.0316 µM, first compound 0.000316 µM
  viability, T/C: 101%
Second compound 0.0316 µM, first compound 0.001 µM
  viability, T/C: 68.8%
Second compound 0.0316 µM, first compound 0.00316 µM
  viability, T/C: 86.1%
Second compound 0.0316 µM, first compound 0.01 µM
  viability, T/C: 85%
[1]
  viability, T/C: 83.4%
[2]
  viability, T/C: 75.5%
Second compound 0.1 µM, first compound 0.000316 µM
  viability, T/C: 43.6%
Second compound 0.1 µM, first compound 0.001 µM
  viability, T/C: 44.8%
Second compound 0.1 µM, first compound 0.00316 µM
  viability, T/C: 41.6%
Second compound 0.1 µM, first compound 0.01 µM
  viability, T/C: 37.5%
[3]
  viability, T/C: 38.6%
[4]
  viability, T/C: 31.4%
Second compound 0.316 µM, first compound 0.000316 µM
  viability, T/C: 34.5%
Second compound 0.316 µM, first compound 0.001 µM
  viability, T/C: 42.8%
Second compound 0.316 µM, first compound 0.00316 µM
  viability, T/C: 34.1%
Second compound 0.316 µM, first compound 0.01 µM
  viability, T/C: 39%
[5]
  viability, T/C: 39.9%
[6]
  viability, T/C: 37.3%
Second compound 1 µM, first compound 0.000316 µM
  viability, T/C: 23.3%
Second compound 1 µM, first compound 0.001 µM
  viability, T/C: 32.8%
Second compound 1 µM, first compound 0.00316 µM
  viability, T/C: 30.6%
Second compound 1 µM, first compound 0.01 µM
  viability, T/C: 23.3%
[7]
  viability, T/C: 21.3%
[8]
  viability, T/C: 25.8%
Second compound 3.16 µM, first compound 0.000316 µM
  viability, T/C: 28.6%
Second compound 3.16 µM, first compound 0.001 µM
  viability, T/C: 23.7%
Second compound 3.16 µM, first compound 0.00316 µM
  viability, T/C: 27.2%
Second compound 3.16 µM, first compound 0.01 µM
  viability, T/C: 23.2%
[9]
  viability, T/C: 24.4%
[10]
  viability, T/C: 23.6%
Second compound 10 µM, first compound 0.000316 µM
  viability, T/C: 29%
Second compound 10 µM, first compound 0.001 µM
  viability, T/C: 25.5%
Second compound 10 µM, first compound 0.00316 µM
  viability, T/C: 24.7%
Second compound 10 µM, first compound 0.01 µM
  viability, T/C: 24.6%
[11]
  viability, T/C: 24.3%
[12]
  viability, T/C: 21.2%

## O=C(c1cc(Cc2n[nH]c(=O)c3ccccc23)ccc1F)N1CCN(C(=O)C2CC2)CC1 + CNC(=O)c1ccc(Nc2nc(OC3CCCC3)c3c(-c4ccc5nc(C)oc5c4)c[nH]c3n2)c(OC)c1
Second compound 0.0316 µM
  IC50: > 10000 nM
Second compound 0.1 µM
  IC50: < 31.6 nM
Second compound 0.316 µM
  IC50: < 31.6 nM
Second compound 1 µM
  IC50: < 31.6 nM
Second compound 3.16 µM
  IC50: < 31.6 nM
Second compound 10 µM
  IC50: < 31.6 nM
[1]
  viability, T/C: 83.2%
[2]
  viability, T/C: 82.8%
Second compound 0.0316 µM, first compound 0.316 µM
  viability, T/C: 95.6%
Second compound 0.0316 µM, first compound 1 µM
  viability, T/C: 115%
Second compound 0.0316 µM, first compound 3.16 µM
  viability, T/C: 109%
Second compound 0.0316 µM, first compound 10 µM
  viability, T/C: 78.5%
[3]
  viability, T/C: 44.3%
[4]
  viability, T/C: 40.1%
Second compound 0.1 µM, first compound 0.316 µM
  viability, T/C: 45.6%
Second compound 0.1 µM, first compound 1 µM
  viability, T/C: 44.1%
Second compound 0.1 µM, first compound 3.16 µM
  viability, T/C: 46.2%
Second compound 0.1 µM, first compound 10 µM
  viability, T/C: 46.3%
[5]
  viability, T/C: 37.4%
[6]
  viability, T/C: 42.7%
Second compound 0.316 µM, first compound 0.316 µM
  viability, T/C: 35.4%
Second compound 0.316 µM, first compound 1 µM
  viability, T/C: 36.1%
Second compound 0.316 µM, first compound 3.16 µM
  viability, T/C: 38.7%
Second compound 0.316 µM, first compound 10 µM
  viability, T/C: 51.8%
[7]
  viability, T/C: 29.4%
[8]
  viability, T/C: 30.1%
Second compound 1 µM, first compound 0.316 µM
  viability, T/C: 28%
Second compound 1 µM, first compound 1 µM
  viability, T/C: 32.3%
Second compound 1 µM, first compound 3.16 µM
  viability, T/C: 24.2%
Second compound 1 µM, first compound 10 µM
  viability, T/C: 25.6%
[9]
  viability, T/C: 27%
[10]
  viability, T/C: 23.7%
Second compound 3.16 µM, first compound 0.316 µM
  viability, T/C: 27.8%
Second compound 3.16 µM, first compound 1 µM
  viability, T/C: 26.5%
Second compound 3.16 µM, first compound 3.16 µM
  viability, T/C: 28.4%
Second compound 3.16 µM, first compound 10 µM
  viability, T/C: 29.4%
[11]
  viability, T/C: 24.7%
[12]
  viability, T/C: 29.3%
Second compound 10 µM, first compound 0.316 µM
  viability, T/C: 23.4%
Second compound 10 µM, first compound 1 µM
  viability, T/C: 24.6%
Second compound 10 µM, first compound 3.16 µM
  viability, T/C: 30.7%
Second compound 10 µM, first compound 10 µM
  viability, T/C: 24.7%
